Measurements taken from patent US20090270413A1, “DI-T-BUTYLPHENYL PIPERAZINES AS CALCIUM CHANNEL BLOCKERS” (priority 2008, published 2009).

What was measured:
[1] = tested on: T-type over L-type channels; conditions: cited from earlier work
Human Cav2.2 channels = biological target: T1, Human Cav2.2 channels (Homo sapiens, UniProt Q00975); assay: Block of Cav2.2 (N-type) channels expressed in HEK293 cells; assay type: cell-based; conditions: for inhibition at 10 µM / inhibition at 30 µM: HEK293; for inhibition at 10 µM: read-out: Cav 2.2 % Inh @ 10 μM; for inhibition at 30 µM: read-out: Cav 2.2 % Inh @ 30 μM; for IC50: read-out: Cav 2.2 IC50
T1 construct: expressed in transfected cells
Outline: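 HEK293 cells co-expressing Cav2.2 with α2δ, β subunits and Kir2.3. Fluo-4 calcium influx: 30 min compound incubation at 25 °C in 4 mM (resting) or 12, 25 or 30 mM K+ (open/inactivated), then 70 mM K+ depolarisation. IonWorks HT barium-current patch clamp: 5 min compound, 2 Hz train of twenty 25 ms steps to +20 mV, first versus 20th pulse block.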

[2] = biological target: T2, Cav3.1 (T-type channel alpha-1G) (Homo sapiens, UniProt O43497); assay: T-type calcium channel voltage-clamp assay, Cav3.1; assay type: cell-based; conditions: read-out: Cav 3.1 IC50
T2 construct: expressed in transfected cells; host or cells: HEK 293
Method: (§1) The T-type calcium channel blocking activity of the compounds of this invention may be readily determined using the methodology well known in the art described by Xia, et al., Assay and Drug Development Tech., 1 (5), 637-645 (2003).
(§2) In a typical experiment ion channel function from HEK 293 cells expressing the T-type channel alpha-1G, H, or I (CaV 3.1, 3.2, 3.3) is recorded to determine the activity of compounds in blocking the calcium current mediated by the T-type channel alpha-1G, H, or I (CaV 3.1, 3.2, 3.3). In this T-type calcium (Ca^2+) antagonist voltage-clamp assay calcium currents are elicited from the resting state of the human alpha-1G, H, or I (CaV 3.1, 3.2, 3.3) calcium channel as follows. Sequence information for T-type (Low-voltage activated) calcium channels are fully disclosed in e.g., U.S. Pat. No. 5,618,720, U.S. Pat. No. 5,686,241, U.S. Pat. No. 5,710,250,U.S. Pat. No. 5,726,035, U.S. Pat. No. 5,792,846, U.S. Pat. No. 5,846,757, U.S. Pat. No. 5,851,824, U.S. Pat. No. 5,874,236, U.S. Pat. No. 5,876,958, U.S. Pat. No. 6,013,474, U.S. Pat. No. 6,057,114, U.S. Pat. No. 6,096,514, WO 99/28342, and J. Neuroscience, 19 (6):1912-1921 (1999). Cells expressing the t-type channels were grown in H3D5 growth media which is comprised DMEM, 6% bovine calf serum (HYCLONE), 30 micromolar Verapamil, 200 microgram/ml Hygromycin B, 1× Penicillin/Streptomycin. Glass pipettes are pulled to a tip diameter of 1-2 micrometer on a pipette puller. The pipettes are filled with the intracellular solution and a chloridized silver wire is inserted along its length, which is then connected to the headstage of the voltage-clamp amplifier. Trypsinization buffer was 0.05% Trypsin, 0.53 mM EDTA. The extracellular recording solution consists of (mM): 130 mM NaCl, 4 mM KCl, 1 mM MgCl2, 2 mM CaCl2, 10 mM HEPES, 30 Glucose, pH 7.4. The internal solution consists of (mM): 135 mM CsMeSO4, 1 MgCl2, 10 CsCl, 5 EGTA, 10 HEPES, pH 7.4, or 135 mM CsCl, 2 MgCl2, 3 MgATP, 2 Na2ATP, 1 Na2GTP, 5 EGTA, 10 HEPES, pH 7.4. Upon insertion of the pipette tip into the bath, the series resistance is noted (acceptable range is between 1-4 megaohm). The junction potential between the pipette and bath solutions is zeroed on the amplifier. The cell is then patched, the patch broken, and, after compensation for series resistance (>=80%), the voltage protocol is applied while recording the whole cell Ca2+ current response. Voltage protocols: (1) −80 mV holding potential every 20 seconds pulse to −20 mV for 40 msec duration; the effectiveness of the drug in inhibiting the current mediated by the channel is measured directly from measuring the reduction in peak current amplitude initiated by the voltage shift from −80 mV to −20 mV; (2). −100 mV holding potential every 15 seconds pulse to −20 mV for 40 msec duration; the effectiveness of the drug in inhibiting the current mediated by the channel is measured directly from measuring the reduction in peak current amplitude initiated by the shift in potential from −100 mV to […]. The difference in block at the two holding potentials was used to determine the effect of drug at differing levels of inactivation induced by the level of resting state potential of the cells. After obtaining control baseline calcium currents, extracellular solutions containing increasing concentrations of a test compound are washed on. Once steady state inhibition at a given compound concentration is reached, a higher concentration of compound is applied. % inhibition of the peak inward control Ca2+ current during the depolarizing step to −20 mV is plotted as a function of compound concentration.

[3] = biological target: T3, Cav3.2 (T-type channel alpha-1H) (Homo sapiens, UniProt O95180); assay: T-type calcium channel voltage-clamp assay, Cav3.2; assay type: cell-based; conditions: read-out: Cav 3.2 IC50
T3 construct: expressed in transfected cells; host or cells: HEK 293
Method: as §1, §2

T3 sequence (O95180 whole entry): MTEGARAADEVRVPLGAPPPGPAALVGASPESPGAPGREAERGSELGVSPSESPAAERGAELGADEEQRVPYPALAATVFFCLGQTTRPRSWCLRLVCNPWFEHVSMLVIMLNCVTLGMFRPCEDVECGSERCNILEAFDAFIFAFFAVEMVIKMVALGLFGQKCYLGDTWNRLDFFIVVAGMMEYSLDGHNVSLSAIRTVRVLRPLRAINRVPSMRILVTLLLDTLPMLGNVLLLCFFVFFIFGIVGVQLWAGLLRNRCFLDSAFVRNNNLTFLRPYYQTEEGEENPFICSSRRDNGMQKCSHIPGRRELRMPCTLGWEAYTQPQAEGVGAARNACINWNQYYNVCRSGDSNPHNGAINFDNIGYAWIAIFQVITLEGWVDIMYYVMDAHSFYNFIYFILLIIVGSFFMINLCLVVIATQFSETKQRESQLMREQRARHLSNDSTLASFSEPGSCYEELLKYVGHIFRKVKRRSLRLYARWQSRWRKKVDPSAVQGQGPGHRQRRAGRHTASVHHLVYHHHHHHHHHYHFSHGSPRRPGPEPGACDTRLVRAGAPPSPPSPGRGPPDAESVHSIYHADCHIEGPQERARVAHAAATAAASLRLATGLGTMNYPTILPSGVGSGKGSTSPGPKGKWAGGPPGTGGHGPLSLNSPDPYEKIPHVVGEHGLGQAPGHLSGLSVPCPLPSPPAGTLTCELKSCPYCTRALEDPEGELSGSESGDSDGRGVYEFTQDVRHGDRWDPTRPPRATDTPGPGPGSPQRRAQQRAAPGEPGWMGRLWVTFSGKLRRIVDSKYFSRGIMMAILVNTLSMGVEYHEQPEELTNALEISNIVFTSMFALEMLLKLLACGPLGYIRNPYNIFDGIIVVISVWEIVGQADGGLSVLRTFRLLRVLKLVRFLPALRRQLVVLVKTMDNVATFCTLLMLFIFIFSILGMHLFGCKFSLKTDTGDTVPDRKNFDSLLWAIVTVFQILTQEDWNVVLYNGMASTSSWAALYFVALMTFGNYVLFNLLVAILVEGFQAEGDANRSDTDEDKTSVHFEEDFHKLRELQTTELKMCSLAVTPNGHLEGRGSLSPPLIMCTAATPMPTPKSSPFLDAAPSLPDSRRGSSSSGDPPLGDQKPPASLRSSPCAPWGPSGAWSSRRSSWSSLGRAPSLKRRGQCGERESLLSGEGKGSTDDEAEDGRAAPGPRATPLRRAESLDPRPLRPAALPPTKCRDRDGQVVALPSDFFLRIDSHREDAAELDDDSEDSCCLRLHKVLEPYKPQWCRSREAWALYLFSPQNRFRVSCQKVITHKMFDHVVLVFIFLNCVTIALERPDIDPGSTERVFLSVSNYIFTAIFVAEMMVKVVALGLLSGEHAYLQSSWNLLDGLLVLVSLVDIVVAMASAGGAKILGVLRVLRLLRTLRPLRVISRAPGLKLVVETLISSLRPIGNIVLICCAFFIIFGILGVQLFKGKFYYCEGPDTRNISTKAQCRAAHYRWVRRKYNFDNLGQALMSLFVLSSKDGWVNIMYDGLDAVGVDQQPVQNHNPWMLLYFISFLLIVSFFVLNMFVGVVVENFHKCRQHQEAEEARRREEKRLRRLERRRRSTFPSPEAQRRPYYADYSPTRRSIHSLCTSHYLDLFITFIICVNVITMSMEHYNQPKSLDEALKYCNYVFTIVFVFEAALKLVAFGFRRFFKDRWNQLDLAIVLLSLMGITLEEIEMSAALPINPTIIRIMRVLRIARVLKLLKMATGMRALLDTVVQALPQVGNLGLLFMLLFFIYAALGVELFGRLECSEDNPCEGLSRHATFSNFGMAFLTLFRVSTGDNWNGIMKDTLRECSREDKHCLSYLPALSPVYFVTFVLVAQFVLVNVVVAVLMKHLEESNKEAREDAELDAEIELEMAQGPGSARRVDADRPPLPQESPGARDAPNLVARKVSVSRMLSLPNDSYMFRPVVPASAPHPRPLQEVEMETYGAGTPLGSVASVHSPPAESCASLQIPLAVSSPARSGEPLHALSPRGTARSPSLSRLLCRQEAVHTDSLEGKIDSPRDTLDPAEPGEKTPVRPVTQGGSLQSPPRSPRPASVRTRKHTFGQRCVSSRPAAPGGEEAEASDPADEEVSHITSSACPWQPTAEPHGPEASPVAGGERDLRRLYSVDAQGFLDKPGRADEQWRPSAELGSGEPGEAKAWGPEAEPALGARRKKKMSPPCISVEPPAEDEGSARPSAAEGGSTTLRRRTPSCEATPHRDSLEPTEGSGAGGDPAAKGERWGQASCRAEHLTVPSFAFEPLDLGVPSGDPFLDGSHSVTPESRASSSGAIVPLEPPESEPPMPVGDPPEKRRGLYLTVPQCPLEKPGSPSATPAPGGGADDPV
T2 sequence (O43497 whole entry): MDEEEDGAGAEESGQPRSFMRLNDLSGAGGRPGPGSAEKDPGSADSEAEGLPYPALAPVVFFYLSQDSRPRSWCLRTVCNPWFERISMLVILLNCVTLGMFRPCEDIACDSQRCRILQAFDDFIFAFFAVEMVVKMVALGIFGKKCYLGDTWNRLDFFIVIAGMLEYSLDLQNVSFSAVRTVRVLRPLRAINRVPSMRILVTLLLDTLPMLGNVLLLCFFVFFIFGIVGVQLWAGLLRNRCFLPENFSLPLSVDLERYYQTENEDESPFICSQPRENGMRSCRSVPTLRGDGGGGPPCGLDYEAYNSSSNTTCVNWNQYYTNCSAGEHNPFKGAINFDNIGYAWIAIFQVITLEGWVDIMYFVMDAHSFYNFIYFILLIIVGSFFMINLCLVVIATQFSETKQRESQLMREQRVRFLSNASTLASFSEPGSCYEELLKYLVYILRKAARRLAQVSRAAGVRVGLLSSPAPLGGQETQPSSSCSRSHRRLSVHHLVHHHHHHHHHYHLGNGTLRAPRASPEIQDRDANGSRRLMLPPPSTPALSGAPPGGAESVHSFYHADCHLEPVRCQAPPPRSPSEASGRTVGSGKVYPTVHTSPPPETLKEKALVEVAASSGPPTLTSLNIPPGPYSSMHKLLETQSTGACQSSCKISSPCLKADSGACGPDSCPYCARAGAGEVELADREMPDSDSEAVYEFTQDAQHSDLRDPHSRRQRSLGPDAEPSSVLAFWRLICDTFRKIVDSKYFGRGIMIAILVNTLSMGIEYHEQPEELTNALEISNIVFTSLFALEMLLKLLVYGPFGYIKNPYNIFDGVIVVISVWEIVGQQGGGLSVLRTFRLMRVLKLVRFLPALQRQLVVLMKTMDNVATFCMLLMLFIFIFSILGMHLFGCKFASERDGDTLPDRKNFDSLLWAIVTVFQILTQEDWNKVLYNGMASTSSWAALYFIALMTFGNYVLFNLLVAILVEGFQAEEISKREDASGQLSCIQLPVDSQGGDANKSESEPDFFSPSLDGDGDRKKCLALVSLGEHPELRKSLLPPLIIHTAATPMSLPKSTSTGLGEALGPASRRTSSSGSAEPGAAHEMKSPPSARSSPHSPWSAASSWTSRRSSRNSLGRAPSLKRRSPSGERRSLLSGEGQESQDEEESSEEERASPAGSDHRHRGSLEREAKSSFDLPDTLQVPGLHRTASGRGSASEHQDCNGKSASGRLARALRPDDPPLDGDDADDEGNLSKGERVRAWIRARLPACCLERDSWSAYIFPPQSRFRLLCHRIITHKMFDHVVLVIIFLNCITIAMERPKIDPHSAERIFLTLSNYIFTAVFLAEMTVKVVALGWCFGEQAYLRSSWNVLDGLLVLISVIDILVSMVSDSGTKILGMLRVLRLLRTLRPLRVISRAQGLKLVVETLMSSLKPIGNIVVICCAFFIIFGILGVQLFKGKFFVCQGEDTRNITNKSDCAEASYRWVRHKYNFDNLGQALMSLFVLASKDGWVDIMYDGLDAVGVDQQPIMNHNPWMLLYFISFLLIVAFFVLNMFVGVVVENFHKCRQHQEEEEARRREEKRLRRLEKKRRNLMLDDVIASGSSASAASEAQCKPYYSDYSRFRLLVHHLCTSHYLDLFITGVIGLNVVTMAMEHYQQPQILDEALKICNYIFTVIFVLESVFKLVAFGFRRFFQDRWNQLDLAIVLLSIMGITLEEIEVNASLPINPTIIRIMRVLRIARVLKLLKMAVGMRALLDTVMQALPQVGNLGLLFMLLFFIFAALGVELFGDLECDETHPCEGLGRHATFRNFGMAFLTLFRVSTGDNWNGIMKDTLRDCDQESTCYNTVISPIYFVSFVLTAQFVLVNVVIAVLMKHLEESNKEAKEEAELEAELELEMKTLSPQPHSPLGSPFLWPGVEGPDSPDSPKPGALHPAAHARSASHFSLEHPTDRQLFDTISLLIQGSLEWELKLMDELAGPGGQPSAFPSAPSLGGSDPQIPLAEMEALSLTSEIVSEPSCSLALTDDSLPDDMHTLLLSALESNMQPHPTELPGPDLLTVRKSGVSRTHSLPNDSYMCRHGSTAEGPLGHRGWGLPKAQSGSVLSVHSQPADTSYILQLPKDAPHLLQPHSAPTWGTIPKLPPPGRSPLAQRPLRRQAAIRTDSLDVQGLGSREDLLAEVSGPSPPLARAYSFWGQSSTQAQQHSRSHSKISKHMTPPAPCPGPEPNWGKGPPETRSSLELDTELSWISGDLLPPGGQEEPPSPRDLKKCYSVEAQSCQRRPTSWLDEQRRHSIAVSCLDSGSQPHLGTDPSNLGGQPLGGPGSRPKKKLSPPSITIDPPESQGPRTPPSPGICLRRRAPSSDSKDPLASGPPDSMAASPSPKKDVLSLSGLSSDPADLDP

Row | inhibition at 10 µM (Human Cav2.2 channels) [%] | inhibition at 30 µM (Human Cav2.2 channels) [%] | IC50 (Human Cav2.2 channels) [nM] | IC50 [2] [nM] | IC50 [3] [nM] | Structure (SMILES) | selective for T-type over L-type channels [1]
1 |  |  |  |  |  | COCC(=O)O[C@]1(CCN(C)CCCc2nc3ccccc3[nH]2)CCc2cc(F)ccc2[C@@H]1C(C)C [Mibefradil] | 10-30 fold
2 | 107 | 98 | 850 | 1490 | 2230 | CCOc1ncccc1C(=O)N1CCN(c2cc(C(C)(C)C)cc(C(C)(C)C)c2)CC1 [Compound 38, (4-(3,5-di-tert-butylphenyl)piperazin-1-yl)(2-ethoxypyridin-3-yl)methanone] | 
3 | 96 | 104 | 370 | 1070 | 1310 | Cc1cc(C(=O)N2CCN(c3cc(C(C)(C)C)cc(C(C)(C)C)c3)CC2)n(C(C)(C)C)n1 [Compound 10, (1-tert-butyl-3-methyl-1H-pyrazol-5-yl)(4-(3,5-di-tert-butylphenyl)piperazin-1-yl)methanone] | 
4 | 94 | 101 | 550 | 2040 | 2290 | Cc1nc(C(=O)N2CCN(c3cc(C(C)(C)C)cc(C(C)(C)C)c3)CC2)c(C(F)(F)F)o1 [Compound 37, (4-(3,5-di-tert-butylphenyl)piperazin-1-yl)(2-methyl-5-(trifluoromethyl)oxazol-4-yl)methanone] | 
